# Experimental data taken from patent US20090305993A1, “METHODS AND COMPOSITION FOR THE TREATMENT OF GASTROINTESTINAL DISORDERS” (IRONWOOD PHARMACEUTICALS, INC., priority 2006, published 2009).
# Where a SMILES comes first, the peptide text is derived from it. Bridges are numbered along the chain shown (N, C = ends).
# Columns and labels:
# [1] = target: T1, intestinal GC-C receptor (Homo sapiens, UniProt P25092); experiment: intestinal GC-C receptor activity assay (cyclic GMP EIA) in T84 cells; assay type: cell-based; conditions: chemically synthesized peptides, FIGS. 2a and 2b
# T1 construct: monolayers of T84 cells in 24-well plates; host or cells: T84 human colon carcinoma cells
# T1 sequence (P25092 24-1073): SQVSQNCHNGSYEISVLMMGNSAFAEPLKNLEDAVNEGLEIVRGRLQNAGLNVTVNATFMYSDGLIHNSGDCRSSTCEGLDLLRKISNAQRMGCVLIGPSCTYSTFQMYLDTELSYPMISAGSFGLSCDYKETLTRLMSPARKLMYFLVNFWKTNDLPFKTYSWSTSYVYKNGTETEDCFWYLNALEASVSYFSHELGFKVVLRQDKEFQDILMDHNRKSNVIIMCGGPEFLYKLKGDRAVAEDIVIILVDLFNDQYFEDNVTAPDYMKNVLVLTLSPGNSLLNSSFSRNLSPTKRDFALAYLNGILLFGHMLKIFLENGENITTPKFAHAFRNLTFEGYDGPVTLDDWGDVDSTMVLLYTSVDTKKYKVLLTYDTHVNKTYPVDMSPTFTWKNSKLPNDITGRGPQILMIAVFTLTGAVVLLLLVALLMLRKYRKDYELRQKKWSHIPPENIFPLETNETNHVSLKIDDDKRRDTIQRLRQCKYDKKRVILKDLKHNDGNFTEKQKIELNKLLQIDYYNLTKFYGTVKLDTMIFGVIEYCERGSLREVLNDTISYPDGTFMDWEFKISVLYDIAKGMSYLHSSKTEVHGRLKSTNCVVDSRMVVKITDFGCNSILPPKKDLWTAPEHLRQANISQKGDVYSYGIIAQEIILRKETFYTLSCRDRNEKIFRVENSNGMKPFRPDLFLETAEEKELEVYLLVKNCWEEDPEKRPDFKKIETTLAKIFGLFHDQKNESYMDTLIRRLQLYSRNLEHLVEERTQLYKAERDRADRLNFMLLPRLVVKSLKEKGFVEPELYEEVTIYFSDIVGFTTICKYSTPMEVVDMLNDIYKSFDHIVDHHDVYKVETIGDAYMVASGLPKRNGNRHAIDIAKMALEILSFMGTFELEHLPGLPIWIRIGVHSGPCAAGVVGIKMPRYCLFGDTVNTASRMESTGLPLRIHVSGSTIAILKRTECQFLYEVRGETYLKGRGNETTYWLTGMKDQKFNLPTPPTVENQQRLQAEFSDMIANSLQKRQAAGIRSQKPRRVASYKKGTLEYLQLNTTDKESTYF
# Experimental: The ability of SEQ ID NO:5, SEQ ID NO:4, SEQ ID NO:3, and SEQ ID NO:6 to activate the intestinal GC-C receptor was assessed in an assay employing the T84 human colon carcinoma cell line (American Type Culture Collection (Bethesda, Md.)). For the assays cells were grown to confluency in 24-well culture plates with a 1:1 mixture of Ham's F12 medium and Dulbecco's modified Eagle's medium (DMEM), supplemented with 5% fetal calf serum and were used at between passages 54 and 60.
# Briefly, monolayers of T84 cells in 24-well plates were washed twice with 1 ml/well DMEM, then incubated at 37° C. for 10 min with 0.45 ml DMEM containing 1 mM isobutylmethylxanthine (IBMX), a cyclic nucleotide phosphodiesterase inhibitor. Test peptides (50 μl) were then added and incubated for 30 minutes at 37° C. The media was aspirated and the reaction was then terminated by the addition of ice cold 0.5 ml of 0.1N HCl. The samples were held on ice for 20 minutes and then evaporated to dryness using a heat gun or vacuum centrifugation.
# [2] = absorbability study in mice, ELISA detection; assay type: in vivo; conditions: CD1, mouse, serum, IV and oral, FIG. 10a, read-out: bioavailable
# Experimental: To study the pharmacokinetics of SEQ ID NO:3, absorbability studies in mice were performed by administering SEQ ID NO:3 intravaneously via tail vein injection or orally by gavage to 8-week-old CD1 mice. Serum was collected from the animals at various time points and tested for the presence of SEQ ID NO:3 using a competitive enzyme-linked immunoabsorbent assay (Oxoid, ST EIA kit, Cat#TD0700). The assay utilized monoclonal antibodies against ST peptide (antibodies are provided in the Oxoid kit) and synthetically manufactured SEQ ID NO:3.
# [3] = target: T2, carboxypeptidase A (Homo sapiens, UniProt P15085); experiment: in vitro proteolytic stability, carboxypeptidase A
# T2 sequence (P15085 111-419): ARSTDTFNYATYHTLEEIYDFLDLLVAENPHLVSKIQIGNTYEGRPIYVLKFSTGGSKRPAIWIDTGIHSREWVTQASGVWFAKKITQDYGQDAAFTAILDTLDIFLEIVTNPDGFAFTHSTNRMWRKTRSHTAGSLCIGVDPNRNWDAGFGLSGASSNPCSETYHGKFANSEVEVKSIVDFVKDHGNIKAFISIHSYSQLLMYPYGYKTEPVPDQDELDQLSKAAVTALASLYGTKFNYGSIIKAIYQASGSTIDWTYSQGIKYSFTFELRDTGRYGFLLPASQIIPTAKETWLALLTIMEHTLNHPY
# Experimental: The stability of SEQ ID NO:3 in the presence of several mammalian digestive enzymes was determined. SEQ ID NO:3 was exposed to a variety of in vitro conditions including digestive enzymes and low ph environments designed to simulate gastric fluid. SEQ ID NO:3 was incubated with chymotrypsin, trypsin, pepsin, aminopeptidase, carboxypeptidase A, and simulated gastric fluid (sgf) at ph 1.0. Samples were collected at 0, 3, and 24 h for all conditions except pepsin digestion and the SGF. For the latter two conditions, samples were obtained at 0, 1, and 3 h. Negative control samples were prepared for initial and final time points. A separate, positive activity control was run in parallel to SEQ ID NO:3. All samples were analyzed by LC/MS
# Five (5) μL of a 40 μg/mL carboxypeptidase inhibitor (carboxypeptidase inhibitor from potato tuber (Sigma-Aldrich, C0279) stock was added to each control sample (0 and 24 h), for a final concentration of 0.4 μg/mL. All control and test (0, 3 and 24 h) samples were incubated at 37° C. for 5 min. Twenty (20) μL of a 0.01 mg/mL carboxypeptidase A (Carboxypeptidase A from human pancreas; Sigma-Aldrich, C5358) stock was added to each sample. The samples were returned to the 37° C. water bath. The reaction was quenched with 5 μL of a 40 μg/mL carboxypeptidase inhibitor at the proper time point. No extra carboxypeptidase inhibitor was added to the control samples since there was already inhibitor present. Samples were subsequently flash frozen in liquid nitrogen, and stored at −80° C. until analysis. Upon analysis, samples were thawed and transferred to a 1 mL 96-well deep microtiter plate. […] These standards were used to generate a standard curve for quantification of samples. When necessary, the standard curves were also used to calculate the concentration of the corresponding digestion product. Ten (10) μL injections were made of each sample and standard.
# To further study the SEQ ID NO:3 carboxypeptidase A digestion product, samples of 0.01 mg/mL SEQ ID NO:3 were prepared in the carboxypeptidase A reaction buffer at a total volume of 500 μL in 2 mL eppendorf tubes. Triplicate samples were prepared for the following time points: 0, 15, 30, 60, 120, 180 and 240 min. The samples were incubated at 37° C. for 5 min. Twenty (20) μL of a 0.01 mg/mL carboxypeptidase A stock were added to each sample and returned to the 37° C. water bath. The reactions were quenched with 5 μL of a 40 μg/mL carboxypeptidase inhibitor at the proper time points. Samples were subsequently flash frozen in liquid nitrogen, and stored at −80° C. until analysis. Upon analysis, samples were thawed and transferred to a 1 mL 96-well plate. Standards of SEQ ID NO:3 were prepared in carboxypeptidase A reaction buffer at 0.625, 1.25, 2.50, 5.00, and 10.00 μg/mL concentrations. These standards were used to generate a standard curve for quantification of samples. When necessary, the standard curves were also used to calculate the concentration of the corresponding digestion product. Ten (10) μL injections were made of each sample and standard. If the formation of a digestion product was evident, then a spectral analysis was used to determine the mass of the digestion product, and predict its possible identity.
# [4] = system: healthy subjects; experiment: seven-day oral dosing study in humans, bowel habits; assay type: in vivo, human
# Experimental: Seven daily doses of 30, 100, 300, or 1000 μg of chemically synthesized SEQ ID NO:3 were given to 48 healthy subjects. SEQ ID NO:3 or placebo (vehicle) was administered orally in 5.0 mL 50 mM phosphate buffer (pH 6.0) plus 3×20 mL water rinses and 175 mL water after at least a 10-hour fast. In each dosing group, 8 subjects were randomized to receive SEQ ID NO:3 and 4 subjects were randomized to receive placebo. […] The Mean Ease of Passage (FIG. 15d) of stools was tested for subjects treated with 30-1000 μg SEQ ID NO:3.
# [5] = system: wild-type or GC-C KO mice; conditions: 5 μg into loop, FIG. 17a
# Experimental: The effect of SEQ ID NO:3 on cGMP levels and secretion were studied by injecting SEQ ID NO:3 directly into an isolated loop in either wild-type or GC-C KO mice. This was done by surgically ligating a loop in the small intestine of the mouse. […] The loop was roughly centered and was a length of 1-3 cm. The loops were injected with 100 μl of either SEQ ID NO:3 (5 μg) or vehicle (20 mM Tris, pH 7.5 or Krebs Ringer, 10 mM Glucose, HEPES buffer (KRGH)). Following a recovery time of 90 minutes the loops were excised. Weights were recorded for each loop before and after removal of the fluid contained therein. The length of each loop was also recorded. A weight to length ratio (W/L) for each loop was calculated to determine the effects of SEQ ID NO:3 on secretion.
# To determine the effect of SEQ ID NO:3 on cGMP activity, fluid from the loop was collected in ice-cold trichloracetic acid (TCA) and stored at −80° C. for use in an assay to measure cGMP levels in the fluid. Intestinal fluid samples were TCA extracted, and cyclic GMP was measured by EIA according to procedures outlined in the Cayman Chemical Cyclic GMP EIA kit (Cayman Chemical, Ann Arbor, Mich.) to determine cyclic GMP levels in the intestinal fluid of the mouse in the presence of either SEQ ID NO:3 or vehicle.
structure (smiles),measurement,setting,value
"C[C@@H]1NC(=O)[C@@H]2CCCN2C(=O)[C@H](CC(N)=O)NC(=O)[C@@H]2CSSC[C@H](N)C(=O)N[C@H]3CSSC[C@H](NC1=O)C(=O)N[C@@H]([C@@H](C)O)C(=O)NCC(=O)N[C@H](C(=O)N[C@@H](Cc1ccc(O)cc1)C(=O)O)CSSC[C@H](NC(=O)[C@H](Cc1ccc(O)cc1)NC(=O)[C@H](CCC(=O)O)NC3=O)C(=O)N2 [SEQ ID NO:3] (H-CCEYCCNPACTGCY-OH; disulfide 1-6, 2-10, 5-13; N-terminus and C-terminus assumed)",activity in GC-C receptor activity assay,[1],activity comparable to SEQ ID NO:4
same,bioavailability,[2],< 2.2%
same,proteolysis by carboxypeptidase A,"[3]; 37° C., FIG. 13a, 13b",some proteolysis
same,Cleavage of SEQ ID NO: 3 by proteolytic substance,"[3]; Carboxypetidase A, 37° C., up to 24 h",Yes
same,average calculated product concentrations,[3]; T3 h samples,1.3 (+/−0.06) μg/mL
same,average calculated product concentrations,[3]; T24 h samples,1.3 (+/−0.04) μg/mL
same,calculated concentrations of parent,[3]; all samples,8.4 (+/−1.2) μg/mL
same,average concentration,"[3]; carboxypeptidase A digestion of SEQ ID NO:3, T0",5115 (+/−121) nM
same,average concentration,"[3]; carboxypeptidase A digestion of SEQ ID NO:3, T240 (240 min)",4438 (+/−188) nM
same,calculated concentrations for the products,[3]; time 0 control (with inhibitor),0.8 (+/−0.02) μg/mL
same,calculated concentrations for the products,[3]; time 0 samples,0.8 (+/−0.01) μg/mL
same,"Mean Ease of Passage of stools, baseline versus treatment, placebo versus SEQ ID NO:3","[4]; 1000 μg dose group, FIG. 15e",greatest difference
same,Mean Stool Weight,"[4]; seven daily oral doses 30-1000 μg, higher doses, FIG. 15C",increase
same,Mean Stool Frequency (stools per week),"[4]; seven daily oral doses 30-1000 μg, higher doses, FIG. 15b",increase
same,cGMP activity in ligated loop fluid,[5],no effect
same,secretion (loop weight to length ratio),[5],no effect
